# ± gives the uncertainty stated by the source.
# Test: xn = mol fraction of the nth substance listed
# Conditions: 101 kPa
smiles,measurement,setting,value
CCCCOC(C)=O + CCCCO,viscosity,"298.15 K, x1 = 0.1",2.212 ± 0.024 mPa·s
same,viscosity,"298.15 K, x1 = 0.1944",1.921 ± 0.02 mPa·s
same,viscosity,"298.15 K, x1 = 0.2974",1.641 ± 0.017 mPa·s
same,viscosity,"298.15 K, x1 = 0.3991",1.407 ± 0.014 mPa·s
same,viscosity,"298.15 K, x1 = 0.4988",1.212 ± 0.012 mPa·s
same,viscosity,"298.15 K, x1 = 0.6008",1.041 ± 0.01 mPa·s
same,viscosity,"298.15 K, x1 = 0.6913",0.923 ± 0.009 mPa·s
same,viscosity,"298.15 K, x1 = 0.7961",0.813 ± 0.008 mPa·s
same,viscosity,"298.15 K, x1 = 0.8993",0.727 ± 0.008 mPa·s
same,viscosity,"303.15 K, x1 = 0.1",1.962 ± 0.022 mPa·s
same,viscosity,"303.15 K, x1 = 0.1944",1.713 ± 0.018 mPa·s
same,viscosity,"303.15 K, x1 = 0.2974",1.475 ± 0.015 mPa·s
same,viscosity,"303.15 K, x1 = 0.3991",1.262 ± 0.013 mPa·s
same,viscosity,"303.15 K, x1 = 0.4988",1.091 ± 0.011 mPa·s
same,viscosity,"303.15 K, x1 = 0.6008",0.948 ± 0.01 mPa·s
same,viscosity,"303.15 K, x1 = 0.6913",0.839 ± 0.009 mPa·s
same,viscosity,"303.15 K, x1 = 0.7961",0.755 ± 0.008 mPa·s
same,viscosity,"303.15 K, x1 = 0.8993",0.688 ± 0.008 mPa·s
same,viscosity,"308.15 K, x1 = 0.1",1.75 ± 0.02 mPa·s
same,viscosity,"308.15 K, x1 = 0.1944",1.532 ± 0.017 mPa·s
same,viscosity,"308.15 K, x1 = 0.2974",1.31 ± 0.014 mPa·s
same,viscosity,"308.15 K, x1 = 0.3991",1.146 ± 0.012 mPa·s
same,viscosity,"308.15 K, x1 = 0.4988",0.993 ± 0.01 mPa·s
same,viscosity,"308.15 K, x1 = 0.6008",0.876 ± 0.009 mPa·s
same,viscosity,"308.15 K, x1 = 0.6913",0.789 ± 0.008 mPa·s
same,viscosity,"308.15 K, x1 = 0.7961",0.703 ± 0.008 mPa·s
same,viscosity,"308.15 K, x1 = 0.8993",0.646 ± 0.007 mPa·s
same,viscosity,"313.15 K, x1 = 0.1",1.558 ± 0.018 mPa·s
same,viscosity,"313.15 K, x1 = 0.1944",1.365 ± 0.015 mPa·s
same,viscosity,"313.15 K, x1 = 0.2974",1.184 ± 0.013 mPa·s
same,viscosity,"313.15 K, x1 = 0.3991",1.037 ± 0.011 mPa·s
same,viscosity,"313.15 K, x1 = 0.4988",0.908 ± 0.01 mPa·s
same,viscosity,"313.15 K, x1 = 0.6008",0.806 ± 0.009 mPa·s
same,viscosity,"313.15 K, x1 = 0.6913",0.731 ± 0.008 mPa·s
same,viscosity,"313.15 K, x1 = 0.7961",0.662 ± 0.008 mPa·s
same,viscosity,"313.15 K, x1 = 0.8993",0.619 ± 0.007 mPa·s
C=COC(C)=O + Cc1ccc(C)cc1,viscosity,"303.15 K, x1 = 0.1501",0.537 ± 0.007 mPa·s
same,viscosity,"303.15 K, x1 = 0.2469",0.518 ± 0.007 mPa·s
same,viscosity,"303.15 K, x1 = 0.3618",0.497 ± 0.006 mPa·s
same,viscosity,"303.15 K, x1 = 0.4592",0.48 ± 0.006 mPa·s
same,viscosity,"303.15 K, x1 = 0.5631",0.462 ± 0.006 mPa·s
same,viscosity,"303.15 K, x1 = 0.67",0.445 ± 0.006 mPa·s
same,viscosity,"303.15 K, x1 = 0.7587",0.435 ± 0.006 mPa·s
same,viscosity,"303.15 K, x1 = 0.8601",0.42 ± 0.005 mPa·s
same,viscosity,"303.15 K, x1 = 0.9478",0.403 ± 0.005 mPa·s
same,viscosity,"313.15 K, x1 = 0.1501",0.486 ± 0.006 mPa·s
same,viscosity,"313.15 K, x1 = 0.2469",0.467 ± 0.006 mPa·s
same,viscosity,"313.15 K, x1 = 0.3618",0.445 ± 0.006 mPa·s
same,viscosity,"313.15 K, x1 = 0.4592",0.428 ± 0.006 mPa·s
same,viscosity,"313.15 K, x1 = 0.5631",0.41 ± 0.005 mPa·s
same,viscosity,"313.15 K, x1 = 0.67",0.393 ± 0.005 mPa·s
same,viscosity,"313.15 K, x1 = 0.9478",0.353 ± 0.005 mPa·s
CCCN + COCCOCCOCCOC,viscosity,"298.15 K, x2 = 0.0076",0.366 ± 0.007 mPa·s
same,viscosity,"298.15 K, x2 = 0.0166",0.375 ± 0.007 mPa·s
same,viscosity,"298.15 K, x2 = 0.0296",0.393 ± 0.007 mPa·s
same,viscosity,"298.15 K, x2 = 0.0659",0.44 ± 0.007 mPa·s
same,viscosity,"298.15 K, x2 = 0.0954",0.48 ± 0.007 mPa·s
same,viscosity,"298.15 K, x2 = 0.1298",0.526 ± 0.007 mPa·s
same,viscosity,"298.15 K, x2 = 0.1596",0.567 ± 0.008 mPa·s
same,viscosity,"298.15 K, x2 = 0.1909",0.611 ± 0.008 mPa·s
same,viscosity,"298.15 K, x2 = 0.2265",0.659 ± 0.008 mPa·s
same,viscosity,"298.15 K, x2 = 0.2351",0.673 ± 0.008 mPa·s
same,viscosity,"298.15 K, x2 = 0.2622",0.711 ± 0.008 mPa·s
same,viscosity,"298.15 K, x2 = 0.2681",0.721 ± 0.008 mPa·s
same,viscosity,"298.15 K, x2 = 0.3073",0.782 ± 0.009 mPa·s
same,viscosity,"298.15 K, x2 = 0.3623",0.864 ± 0.009 mPa·s
same,viscosity,"298.15 K, x2 = 0.4044",0.935 ± 0.009 mPa·s
same,viscosity,"298.15 K, x2 = 0.4583",1.022 ± 0.01 mPa·s
same,viscosity,"298.15 K, x2 = 0.5139",1.115 ± 0.01 mPa·s
same,viscosity,"298.15 K, x2 = 0.5761",1.225 ± 0.011 mPa·s
same,viscosity,"298.15 K, x2 = 0.6483",1.365 ± 0.012 mPa·s
same,viscosity,"298.15 K, x2 = 0.6867",1.435 ± 0.012 mPa·s
same,viscosity,"298.15 K, x2 = 0.745",1.549 ± 0.013 mPa·s
same,viscosity,"298.15 K, x2 = 0.8308",1.72 ± 0.014 mPa·s
same,viscosity,"298.15 K, x2 = 0.8787",1.805 ± 0.014 mPa·s
same,viscosity,"298.15 K, x2 = 0.9203",1.862 ± 0.015 mPa·s
same,viscosity,"298.15 K, x2 = 0.9618",1.917 ± 0.015 mPa·s

# From the CheMixHub viscosity set
